Results reported in patent US20110207726A1, “Inhibitors of Human Cathepsin L, Cathepsin B, and Cathepsin S” (The Trustees of the University of Pennsylvania, priority 2008, published 2011).
Read-outs that look alike come from different tables or passages of the source.

Columns and labels:
Format in all cases: biochemical
human liver cathepsin L = target: T1, human liver cathepsin L (Homo sapiens, UniProt P07711); assay: Cathepsin L assay, IC50 determination
T1 construct: 8.7 ng/mL human liver cathepsin L (Calbiochem 219402); purchased Calbiochem 219402; host or cells: human liver
T1 sequence (P07711 114-288 limits assumed): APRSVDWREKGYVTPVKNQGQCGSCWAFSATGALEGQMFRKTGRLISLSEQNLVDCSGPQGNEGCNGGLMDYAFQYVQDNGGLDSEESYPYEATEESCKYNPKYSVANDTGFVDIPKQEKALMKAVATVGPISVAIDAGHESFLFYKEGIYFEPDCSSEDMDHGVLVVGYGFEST
T1 sequence (P07711 292-333 limits assumed): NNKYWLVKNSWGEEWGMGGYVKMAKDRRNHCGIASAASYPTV
Protocol: Assay buffer consisted of 20 mM sodium acetate, 1 mM ethylenediaminetetraacetic acid (EDTA) and 5 mM cysteine, pH 5.5. Cathepsin L was incubated in assay buffer for 30 minutes prior to dispensing into wells to allow for efficient reduction of the active site cysteine required for full enzymatic activity.
Upon activation, cathepsin L (300 pM, 8.7 ng/mL) was incubated with 1 microM Z-Phe-Arg-AMC substrate (Sigma C9521) and test compound in […] of assay buffer for 1 hour at room temperature.
All reactions were performed in 20 mM sodium acetate buffer containing 5 mM cysteine and 1 mM EDTA, pH 5.5. Reaction progress was monitored using the Envision microplate reader. IC50 values were measured in triplicate.

Human liver cathepsin B = target: T2, Human liver cathepsin B (Homo sapiens, UniProt P07858); assay: Cathepsin B assay, IC50 determination; settings: Table 1; read-out: IC50 Cat B
T2 construct: Human liver cathepsin B (Calbiochem 219362, 65 ng/mL); purchased Calbiochem 219362; host or cells: human liver
Protocol: (§1) Human spleen cathepsin S (Calbiochem 219344, 40 ng/mL) was assayed using 15 microM Z-Phe-Arg-AMC substrate. Human liver cathepsin B (Calbiochem 219362, 65 ng/mL) was assayed using 15 microM Z-Arg-Arg-AMC substrate (Bachem I-1135). All reactions were performed in 20 mM sodium acetate buffer containing 1 mM EDTA and 5 mM cysteine, pH 5.5.
(§2) Compounds were serially diluted in DMSO and transferred into a 96-well Corning 3686 assay microplate to give a 16-point two-fold serial dilution dose response ranging from 25 microM to 760 pM. Human liver cathepsin L (Calbiochem 219402) was activated by incubating with assay buffer for 30 min. Upon activation, cathepsin L (300 pM, 8.7 ng/mL) was incubated with 1 microM Z-Phe-Arg-AMC substrate (Sigma C9521) and test compound in […] of assay buffer for 1 hour at room temperature. Fluorescence of AMC released by enzyme-catalyzed hydrolysis of Z-Phe-Arg-AMC was read on a PerkinElmer Envision microplate reader (excitation 355 nm, emission 460 nm). Data were scaled using internal controls and fitted to a four-parameter logistic model (IDBS XLfit equation 205) to obtain IC50 values in triplicate.
(§3) Compound No. 1 was assayed for inhibition against papain and cathepsins B, G, K, S, and V. Papain from Carica papaya (Calbiochem 5125, 11 ng/mL), human cathepsin K (Calbiochem 342001, 35 ng/mL), human spleen cathepsin S (Calbiochem 219344, 40 ng/mL), and human cathepsin V (Calbiochem 219467, 39 ng/ml) were assayed using Z-Phe-Arg-AMC substrate at 20 μM, 20 μM, 15 μM, and 1 μM, respectively. Human liver cathepsin B (Calbiochem 219362, 65 ng/mL) was assayed using 15 μM Z-Arg-Arg-AMC substrate (Bachem I-1135). Human neutrophil cathepsin G (Calbiochem 219373, 4.2 μg/mL) was assayed using 15 μM Suc-Ala-Ala-Pro-Phe-AMC substrate (Sigma S9761). All reactions were performed in 20 mM sodium acetate buffer containing 5 mM cysteine and 1 mM EDTA, pH 5.5. Reaction progress was monitored using the Envision microplate reader. IC50 values were measured in triplicate.

Human spleen cathepsin S = target: T3, Human spleen cathepsin S (Homo sapiens, UniProt P25774); assay: Cathepsin S assay, IC50 determination; settings: Table 1; read-out: IC50 Cat S
T3 construct: Human spleen cathepsin S (Calbiochem 219344, 40 ng/mL); purchased Calbiochem 219344; host or cells: human spleen
T3 sequence (P25774 115-331): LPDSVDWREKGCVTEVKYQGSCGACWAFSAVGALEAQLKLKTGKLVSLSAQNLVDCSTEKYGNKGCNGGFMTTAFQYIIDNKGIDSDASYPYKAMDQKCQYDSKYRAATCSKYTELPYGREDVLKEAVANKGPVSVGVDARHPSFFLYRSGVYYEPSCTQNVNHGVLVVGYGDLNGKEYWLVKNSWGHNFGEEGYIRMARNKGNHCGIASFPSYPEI
Protocol: as §1, §2, §3

[1] = Table 17, n = 3, C, S or O at the sulfur position, read-out: Cathepsin L inhibitory activity IC50

| IC50 (human liver cathepsin L; [1]) [nM] | IC50 (human liver cathepsin L; Table 1, read-out: IC50 Cat L) [nM] | IC50 (Human liver cathepsin B) [nM] | IC50 (Human spleen cathepsin S) [nM] | SMILES | cathepsin L inhibitory activity (in words) (human liver cathepsin L) | IC50 (human liver cathepsin L; read-out: IC50 against cathepsin L) [nM] |
| --- | --- | --- | --- | --- | --- | --- |
| 28 ± 4 | – | – | – | CCc1ccccc1NC(=O)COC(=O)NNC(=O)C(Cc1c[nH]c2ccccc12)NC(=O)OC(C)(C)C (stereo not shown) [2-ethylanilide O] | – | – |
| – | – | – | – | CCc1ccccc1NC(=O)CSc1nnc([C@@H](N)Cc2c[nH]c3ccccc23)o1 [Compound (ii)] | completely devoid of activity | – |
| – | 96 | 4460 | 930 | CC(C)(C)OC(=O)N[C@@H](Cc1c[nH]c2ccccc12)C(=O)NNC(=O)SCC(=O)N1CCCc2ccccc21 [Compound No. 5] | – | – |
| – | 29 | 6590 | 320 | CC(C)(C)OC(=O)N[C@@H](Cc1c[nH]c2ccccc12)C(=O)NNC(=O)SCC(=O)NCCc1ccccc1 [Compound No. 7] | – | – |
| – | 1030 | > 25000 | 2900 | CC(C)(C)OC(=O)N[C@@H](Cc1c[nH]c2ccccc12)C(=O)NNC(=O)SCC(=O)N1CCc2ccc(Br)cc2C1c1ccccc1 (stereo partly shown) [Compound No. 13] | – | – |
| – | 1290 | 2030 | 690 | CCc1ccccc1NC(=O)CSC(=O)NNC(=O)[C@H](CCSC)NC(=O)OC(C)(C)C [Compound No. 17] | – | – |
| – | 1340 | 2210 | 630 | CSCC[C@H](NC(=O)OC(C)(C)C)C(=O)NNC(=O)SCC(=O)N1CCCc2ccccc21 [Compound No. 18] | – | – |
| – | 520 | 2310 | 410 | CSCC[C@H](NC(=O)OC(C)(C)C)C(=O)NNC(=O)SCC(=O)N1CCc2ccccc2C1 [Compound No. 19] | – | – |
| – | 330 | 2420 | 310 | CSCC[C@H](NC(=O)OC(C)(C)C)C(=O)NNC(=O)SCC(=O)NCCc1c[nH]c2ccccc12 [Compound No. 20] | – | – |
| – | 660 | 870 | 3740 | CCc1ccccc1NC(=O)CSC(=O)NNC(=O)[C@@H](NC(=O)OC(C)(C)C)C(C)C [Compound No. 21] | – | – |
| – | 680 | 630 | 4240 | CC(C)[C@H](NC(=O)OC(C)(C)C)C(=O)NNC(=O)SCC(=O)N1CCCc2ccccc21 [Compound No. 22] | – | – |
| – | 450 | 440 | 7240 | CC(C)[C@H](NC(=O)OC(C)(C)C)C(=O)NNC(=O)SCC(=O)N1CCc2ccccc21 [Compound No. 23] | – | – |
| – | – | – | – | CCc1ccccc1NC(=O)CSC(=O)NNC(=O)[C@@H](Cc1c[nH]c2ccccc12)NC(=O)OC(C)(C)C [R-enantiomer of Compound No. 1] | – | 34000 |
| 41 ± 2 | – | – | – | CC(C)(C)OC(=O)NC(Cc1c[nH]c2ccccc12)C(=O)NNC(=O)SCC(=O)N1CCCc2ccccc21 (stereo not shown) [Tetrahydroquinoline S] | – | – |

| SMILES | IC50 (human liver cathepsin L; [1]) [nM] | IC50 (human liver cathepsin L; Table 1, read-out: IC50 Cat L) [nM] | IC50 (Human liver cathepsin B) [nM] | IC50 (Human spleen cathepsin S) [nM] | cathepsin L inhibitory activity (in words) (human liver cathepsin L) | IC50 (human liver cathepsin L; read-out: IC50 against cathepsin L) [nM] |
| --- | --- | --- | --- | --- | --- | --- |
| CCOC(=O)c1cccc(NC(=O)CSC(=O)NNC(=O)[C@H](Cc2c[nH]c3ccccc23)NC(=O)OC(C)(C)C)c1 [Compound No. 8] | – | 62 | > 25000 | 680 | – | – |
| CCOC(=O)c1ccc(NC(=O)CSC(=O)NNC(=O)[C@H](Cc2c[nH]c3ccccc23)NC(=O)OC(C)(C)C)cc1 [Compound No. 9] | – | 57 | > 25000 | 580 | – | – |
| CC(C)(C)OC(=O)N[C@@H](Cc1c[nH]c2ccccc12)C(=O)NNC(=O)SCC(=O)N1CCOc2ccccc21 [Compound No. 10] | – | 220 | 3230 | 950 | – | – |
| CC(C)(C)OC(=O)N[C@@H](Cc1c[nH]c2ccccc12)C(=O)NNC(=O)SCC(=O)N1CCc2ccccc2C1 [Compound No. 12] | – | 19 | 3250 | 530 | – | – |
| CC(C)(C)OC(=O)N[C@@H](Cc1c[nH]c2ccccc12)C(=O)NNC(=O)SC1CCN(c2ccccc2)C1=O (stereo partly shown) [Compound No. 14] | – | 1050 | 14000 | 2070 | – | – |
| COC(=O)CSC(=O)NNC(=O)[C@H](Cc1c[nH]c2ccccc12)NC(=O)OC(C)(C)C [Compound No. 15] | – | 98 | 6330 | 570 | – | – |
| CCc1ccccc1NC(=O)CSC(=O)NNC(=O)[C@@H](Cc1c[nH]c2ccccc12)NC(=O)OC(C)(C)C [Compound No. 16] | – | > 25000 | > 25000 | > 25000 | – | – |
